{"source": "paper PMC9149975", "about": "“The diaryl-imidazopyridazine anti-plasmodial compound, MMV652103, exhibits anti-breast cancer activity” (EXCLI Journal, 2022)", "key": {"[1]": {"tested_on": "BT474 (HER2+) breast cancer cells", "test": "MTT cytotoxicity assay, BT474", "type": "cell-based", "settings": "Homo sapiens, BT-474", "method": "(§1) Human estrogen-receptor positive (ER+) breast adenocarcinoma cell lines, MCF7 and T47D, were maintained in Roswell Park Memorial Institute-1640 medium (Sigma Aldrich, Missouri, USA) and the human epidermal growth factor receptor 2 positive (HER2+) BT474, and triple negative (TNBC) MDA-MB-231 and MDA-MB-468 cells were maintained in Dulbecco's Modified Eagle's Medium (DMEM) (Sigma Aldrich, Missouri, USA). […]\n(§2) Cells (3.5×10^3-6×10^3 / well) were seeded in 96-well plates and treated at a 60-70 % confluence with a range of concentrations (0-10 μM) of test compounds or vehicle for 48 h. Cell viability was measured using the 3-(4,5-dimethylthiazol-2-yl)-2,5-diphenyl-trazolium bromide (MTT) assay (11465007001; Sigma Aldrich) according to the manufacturer's instructions. Mean cell viability was calculated as a percentage of the mean vehicle control. A minimum of three independent experiments in quadruplicate were performed from which the IC50 was determined from sigmoidal plots using GraphPad Prism version 6.0 (GraphPad Software, California, USA). The selectivity index (SI) was determined by dividing the IC50 of a non-malignant cell line by the IC50 of a cancer cell line."}, "MCF7 cells": {"tested_on": "MCF7 cells", "test": "GSH-Glo Glutathione assay", "type": "cell-based, human", "settings": "MCF7, 24 h; MMV652103 ½ IC50 and IC50, doxorubicin IC50 (9.84 nM)", "method": "The increase in ROS levels results in a decrease in the levels of antioxidants. To confirm the presence of intracellular ROS, the levels of the antioxidant, glutathione (GSH), was measured using the GSH-Glo™ Glutathione assay kit (V6911, Promega, Wisconsin, USA), according to the manufacturer's instructions. Briefly, cells (2500-4500 cells per well) were seeded in opaque 96 well plates. Cells were treated for 24 h with either vehicle or MMV652103. Thereafter, the cell culture medium was removed and 100 μl of 1X GSH-Glo™ Reagent (prepared using Luciferin-NT substrate and Glutathione S-Transferase each diluted 1:100 in GSH-Glo™ Reaction Buffer) was added to each well. The plate was then mixed briefly on a shaker and incubated for 10 min at RT. Thereafter, 100 μl reconstituted Luciferin Detection Reagent was added to each well. The plate was then incubated for 15 min RT in order to stabilize the luminescence signal. The plate was read using the GloMax® Explorer Multimode plate reader (Promega, Wisconsin, USA)."}, "T47D cells": {"tested_on": "T47D cells", "test": "Western blotting / immunofluorescence, T47D", "type": "cell-based, human", "method": "Cells were exposed to MMV652103 or vehicle for 24 and 48 h. Cell lysates were prepared, and western blotting performed as previously described (Abrahams et al., 2008[1]). Primary antibodies were: PARP1/2 (sc-7150, 1:1000), p53 (sc-126, 1:1000), p21 (sc-756, 1:1000), cyclin B1 (H-433) (sc-752, 1:500) from Santa Cruz (California, USA), phospho-H2AX (#2577, 1:1000), phospho-p38 MAP Kinase (#9211, 1:1000), LC3 (#2775, 1:1000), caspase-7 (#9492, 1:1000), caspase-8 (#9746, 1:1000), caspase-9 (#9502S, 1:1000), from Cell Signaling (Boston, MA, USA), PUMA (ab9643, 1:1000) (AbCam, Cambridge, MA, USA) and p38 (M0800, 1:5000) from Sigma (St. Louis, MO, USA). Total p38 was used as a loading control because although its activity is modulated by phosphorylation, its total levels remain unaltered in response to stimuli (Raingeaud et al., 1995[68]). Densitometry readings were obtained using ImageJ v1.50i58 and protein expression levels were represented as a ratio of protein of interest/p38 loading control normalized to the vehicle treated control sample where appropriate. All blots are representative of at least three independent experiments.\nCells on glass coverslips were treated with either MMV652103 or vehicle for 24 and 48 h and processed for immunofluorescence with antibodies against phospho H2A.X (#2577) (1:500) or LC3B (#2775) (1:200) (Cell Signaling Technology) as previously described (Bleloch et al., 2019[8]). Cells were imaged using confocal microscopy (Carl Zeiss LSM 880 with Fast Airyscan module confocal (Oberkochen, Germany)). Multiple z layers were acquired with […] step width. Images were processed using ZEN 2012 imaging software (Carl Zeiss) and maximum intensity projections were generated. For quantification, mean fluorescence was measured from at least 20 fields of view per treatment condition and pooled from three independent replicates."}, "[2]": {"tested_on": "MCF12A (normal breast epithelial cell line)", "test": "MTT cytotoxicity assay, MCF12A", "type": "cell-based", "settings": "Homo sapiens, MCF-12A, 48 h, Fig 2C summary, MTT 48 h; read-out: IC50 ± SEM MCF12A", "method": "as §1\nas §2, with “line. […]” for “line.”"}, "[3]": {"test": "MTT cytotoxicity assay, MCF12A", "type": "cell-based", "settings": "human, MCF12A non-malignant breast epithelial cells, MTT, read-out: Cytotoxicity assays (MTT) IC50 MCF12A", "method": "as §1\nas §2, with “line. […]” for “line.”"}, "PI4K2B": {"target": "T1, PI4K2B (Homo sapiens, UniProt Q8TCG2)", "T1 construct": "purchased Carna Biosciences Inc; Invitrogen Corporation", "test": "ADP-Glo lipid kinase assay, PI4K2B", "type": "biochemical", "settings": "10 µM compound"}}, "note": "Where two headings read alike, the source gives them in different places.", "data": [{"compound": "CS(=O)(=O)c1ccc(-c2cnc3ccc(-c4cccc(S(C)(=O)=O)c4)nn23)cc1", "note": "[MMV652103]", "values": [{"measurement": "IC50", "setting": "[1]; Fig 2C summary, MTT 48 h, read-out: IC50 ± SEM BT474", "value": "7.3 ± 1.05", "unit": "µM"}, {"measurement": "IC50", "setting": "[1]; MTT, 48 h, read-out: IC50 BT474", "value": 7.3, "unit": "µM"}, {"measurement": "levels of GSH", "setting": "MCF7 cells", "value": "significant decrease"}, {"measurement": "levels of phosphorylated p38, T47D", "setting": "T47D cells; western blot", "value": "increased"}, {"measurement": "p21 levels, T47D", "setting": "T47D cells; western blot", "value": "increased"}, {"measurement": "levels of p53, T47D", "setting": "T47D cells; western blot, mutant non-functional p53", "value": "no effect"}, {"measurement": "levels of γH2AX, T47D", "setting": "T47D cells; ½ IC50 and IC50, 24 and 48 h", "value": "dose- and time-dependent increase"}, {"measurement": "IC50", "setting": "[2]", "value": "6.6 ± 1.07", "unit": "µM"}, {"measurement": "IC50 at 48 h", "setting": "[3]", "value": 6.64, "unit": "µM"}, {"measurement": "remaining activity at 10 µM", "setting": "PI4K2B", "value": 50, "unit": "%"}]}]}
